Test results as given in patent US20070082880A1 (priority 2005, published 2007).
Structures can show the parent of a compound that is named as a salt.

System: not given
Experiment: not given
Details: not given

melting point | SMILES
228 °C | N#Cc1cnc2sc(Cl)cc2c1Nc1ccc2[nH]ccc2c1 [Compound 495, 2-chloro-4-(1H-indol-5-ylamino)thieno[2,3-b]pyridine-5-carbonitrile]
222 to 224 °C | N#Cc1cnc2sc(-c3ccccc3C=O)cc2c1Nc1ccc2[nH]ccc2c1 [Compound 184, 2-(2-formylphenyl)-4-(1H-indol-5-ylamino)thieno[2,3-b]pyridine-5-carbonitrile]
249 to 251 °C | Br.N#Cc1cnc2scc(Br)c2c1Nc1ccc2[nH]ccc2c1
137 to 139 °C | N#Cc1cnc2sc(-c3ccccc3C=O)cc2c1Nc1cccc2[nH]ccc12 [Compound 142, 2-(2-formylphenyl)-4-(1H-indol-4-ylamino)thieno[2,3-b]pyridine-5-carbonitrile]
> 245 °C | Cl.N#Cc1cnc2sc(I)cc2c1Nc1cccc2[nH]ccc12
221 to 223 °C | N#Cc1cnc2sc(-c3cccc(C=O)c3)cc2c1Nc1ccc2[nH]ccc2c1 [Compound 144, 2-(3-formylphenyl)-4-(1H-indol-5-ylamino)thieno[2,3-b]pyridine-5-carbonitrile]
230 °C (dec.) | Cc1c(Nc2c(C#N)cnc3sc(/C=C/CN4CCOCC4)cc23)ccc2[nH]ccc12 (as salt: HCl) [Compound 275, 4-[(4-methyl-1H-indol-5-yl)amino]-2-[(1E)-3-morpholin-4-ylprop-1-en-1-yl]thieno[2,3-b]pyridine-5-carbonitrile]
250 to 252 °C | Cl.N#Cc1cnc2sc(I)cc2c1Nc1ccc2[nH]ccc2c1
> 245 °C | N#Cc1cnc2sc(I)cc2c1Nc1cccc2cc[nH]c12 [Compound 108, 4-(1H-indol-7-ylamino)-2-iodothieno[2,3-b]pyridine-5-carbonitrile]
> 245 °C | N#Cc1cnc2sc(-c3ccc(C=O)cc3)cc2c1Nc1cccc2[nH]ccc12 [Compound 136, 2-(4-formylphenyl)-4-(1H-indol-4-ylamino)thieno[2,3-b]pyridine-5-carbonitrile]
258 to 260 °C | Cc1c(Nc2c(C#N)cnc3sc(C#C[Si](C)(C)C)cc23)ccc2[nH]ccc12
185 °C (dec.) | Cc1c(Nc2c(C#N)cnc3sc(C4CCN(Cc5ccccc5)C4)cc23)ccc2[nH]ccc12 (stereo not drawn) (as salt: HCl) [Compound 479, 2-(1-benzylpyrrolidin-3-yl)-4-[(4-methyl-1H-indol-5-yl)amino]thieno[2,3-b]pyridine-5-carbonitrile]
> 245 °C | N#Cc1cnc2sc(-c3cccc(C=O)c3)cc2c1Nc1cccc2[nH]ccc12 [Compound 139, 2-(3-formylphenyl)-4-(1H-indol-4-ylamino)thieno[2,3-b]pyridine-5-carbonitrile]

Biological target: T1, human PKCθ full length enzyme (Homo sapiens, UniProt Q04759)
T1 construct: human PKCθ full length enzyme (Panvera Catalog No. P2996); purchased Panvera P2996
Experiment: PKCθ IMAP Assay
Assay type: biochemical
Details: average value when one or more samples were tested; ATP 6 uM, PKCθ 1 nM
Outline: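 Full-length human PKCθ (1 nM final) with 6 uM ATP and 100 nM 5FAM-labelled peptide, 5% DMSO, 3.0 mM DTT in reaction buffer. 25 min at room temperature; IMAP bead binding 20 min, fluorescence polarization read. Compounds 2:1 serially diluted; no-ATP and no-enzyme wells as controls.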

T1 sequence (Q04759 whole entry): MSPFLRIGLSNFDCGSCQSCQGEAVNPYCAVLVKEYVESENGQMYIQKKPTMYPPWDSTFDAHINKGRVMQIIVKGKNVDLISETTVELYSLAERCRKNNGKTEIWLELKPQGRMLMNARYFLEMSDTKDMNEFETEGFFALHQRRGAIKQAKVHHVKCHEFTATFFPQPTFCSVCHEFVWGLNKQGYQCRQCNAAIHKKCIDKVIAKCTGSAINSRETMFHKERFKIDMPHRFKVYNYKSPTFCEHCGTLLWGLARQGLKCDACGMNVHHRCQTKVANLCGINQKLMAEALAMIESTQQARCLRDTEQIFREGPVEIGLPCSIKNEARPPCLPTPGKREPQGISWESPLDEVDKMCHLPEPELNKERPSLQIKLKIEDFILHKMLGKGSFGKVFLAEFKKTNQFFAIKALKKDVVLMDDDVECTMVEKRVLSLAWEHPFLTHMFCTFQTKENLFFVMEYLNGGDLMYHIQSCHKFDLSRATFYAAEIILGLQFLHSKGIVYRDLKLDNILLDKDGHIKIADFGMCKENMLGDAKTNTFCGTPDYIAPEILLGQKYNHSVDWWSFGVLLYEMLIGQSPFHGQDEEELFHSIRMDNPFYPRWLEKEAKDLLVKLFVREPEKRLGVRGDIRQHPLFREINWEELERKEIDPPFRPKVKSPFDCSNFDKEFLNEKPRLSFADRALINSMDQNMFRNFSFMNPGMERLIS

IC50 [nM] | SMILES
395 | N#Cc1cnc2sc(Cl)cc2c1Nc1ccc2[nH]ccc2c1 [Compound 495, 2-chloro-4-(1H-indol-5-ylamino)thieno[2,3-b]pyridine-5-carbonitrile]
110 | N#Cc1cnc2sc(-c3cccc(CN4CC[C@H](O)C4)c3)cc2c1Nc1ccc2[nH]ccc2c1 [Compound 171, 2-(3-{[(3S)-3-hydroxypyrrolidin-1-yl]methyl}phenyl)-4-(1H-indol-5-ylamino)thieno[2,3-b]pyridine-5-carbonitrile]
187 | Cc1c(Nc2c(C#N)cnc3sc(C(=O)NCCc4ccccc4)cc23)ccc2[nH]ccc12 [Compound 260, 5-cyano-4-[(4-methyl-1H-indol-5-yl)amino]-N-(2-phenylethyl)thieno[2,3-b]pyridine-2-carboxamide]
38 | Cc1c(Nc2c(C#N)cnc3sc(-c4cc(F)cc(C(=O)N(C)C)c4)cc23)ccc2[nH]ccc12 [Compound 512, 3-{5-cyano-4-[(4-methyl-1H-indol-5-yl)amino]thieno[2,3-b]pyridin-2-yl}-5-fluoro-N,N-dimethylbenzamide]
4670 | N#Cc1cnc2sc(-c3ccccc3)cc2c1Nc1cnc2[nH]ccc2c1 [Compound 322, 2-phenyl-4-(1H-pyrrolo[2,3-b]pyridin-5-ylamino)thieno[2,3-b]pyridine-5-carbonitrile]
45 | Cc1c(Nc2c(C#N)cnc3sc(/C=C/CCN4CCN(C)CC4)cc23)ccc2[nH]ccc12 [Compound 272, 4-[(4-methyl-1H-indol-5-yl)amino]-2-[(1E)-4-(4-methylpiperazin-1-yl)but-1-en-1-yl]thieno[2,3-b]pyridine-5-carbonitrile]
38 | COc1ccc(CN(C)C)cc1-c1cc2c(Nc3ccc4[nH]ccc4c3)c(C#N)cnc2s1 [Compound 155, 2-{5-[(dimethylamino)methyl]-2-methoxyphenyl}-4-(1H-indol-5-ylamino)thieno[2,3-b]pyridine-5-carbonitrile]
470 | COC(=O)Nc1ccc(-c2cc3c(Nc4ccc5[nH]ccc5c4)c(C#N)cnc3s2)cc1 [Compound 342, methyl {4-[5-cyano-4-(1H-indol-5-ylamino)thieno[2,3-b]pyridin-2-yl]phenyl}carbamate]
1670 | N#Cc1cnc2sc(C(=O)Nc3cccnc3)cc2c1Nc1ccc2[nH]ccc2c1 [Compound 251, 5-cyano-4-(1H-indol-5-ylamino)-N-pyridin-3-ylthieno[2,3-b]pyridine-2-carboxamide]
35 | Cc1c(Nc2c(C#N)cnc3sc(-c4ccnn4C)cc23)ccc2[nH]ccc12 [Compound 527, 4-[(4-methyl-1H-indol-5-yl)amino]-2-(1-methyl-1H-pyrazol-5-yl)thieno[2,3-b]pyridine-5-carbonitrile]
> 1500 | N#Cc1cnc2sc(C#Cc3cnc(N)nc3)cc2c1Nc1ccc2[nH]ccc2c1 [Compound 228, 2-[(2-aminopyrimidin-5-yl)ethynyl]-4-(1H-indol-5-ylamino)thieno[2,3-b]pyridine-5-carbonitrile]
30 | COc1ccc(C(=O)N(C)C)cc1-c1cc2c(Nc3ccc4[nH]ccc4c3C)c(C#N)cnc2s1 [Compound 369, 3-{5-cyano-4-[(4-methyl-1H-indol-5-yl)amino]thieno[2,3-b]pyridin-2-yl}-4-methoxy-N,N-dimethylbenzamide]
41 | Cc1c(Nc2c(C#N)cnc3sc(-c4cccc(S(C)(=O)=O)c4)cc23)ccc2[nH]ccc12 [Compound 375, 4-[(4-methyl-1H-indol-5-yl)amino]-2-[3-(methylsulfonyl)phenyl]thieno[2,3-b]pyridine-5-carbonitrile]
380 | N#Cc1cnc2sc(-c3ccc(S(N)(=O)=O)cc3)cc2c1Nc1ccc2[nH]ccc2c1 [Compound 242, 4-[5-cyano-4-(1H-indol-5-ylamino)thieno[2,3-b]pyridin-2-yl]benzenesulfonamide]
690 | CN(C)Cc1cccc(-c2cc3c(Nc4cnc5[nH]ccc5c4)c(C#N)cnc3s2)c1 [Compound 320, 2-{3-[(dimethylamino)methyl]phenyl}-4-(1H-pyrrolo[2,3-b]pyridin-5-ylamino)thieno[2,3-b]pyridine-5-carbonitrile]
49 | Cc1c(Nc2c(C#N)cnc3sc(-c4nccn4C)cc23)ccc2[nH]ccc12 [Compound 432, 2-(1-methyl-1H-imidazol-2-yl)-4-[(4-methyl-1H-indol-5-yl)amino]thieno[2,3-b]pyridine-5-carbonitrile]
113 | Cc1c(Nc2c(C#N)cnc3sc(-c4cccc5[nH]ccc45)cc23)ccc2[nH]ccc12 [Compound 505, 2-(1H-indol-4-yl)-4-[(4-methyl-1H-indol-5-yl)amino]thieno[2,3-b]pyridine-5-carbonitrile]
8 | Cc1cc(CN(C)C)cc(-c2cc3c(Nc4ccc5[nH]ccc5c4C)c(C#N)cnc3s2)c1 [Compound 454, 2-{3-[(dimethylamino)methyl]-5-methylphenyl}-4-[(4-methyl-1H-indol-5-yl)amino]thieno[2,3-b]pyridine-5-carbonitrile]
13 | Cc1c(Nc2c(C#N)cnc3sc(-c4ccncc4)cc23)ccc2[nH]ccc12 [Compound 439, 4-[(4-methyl-1H-indol-5-yl)amino]-2-pyridin-4-ylthieno[2,3-b]pyridine-5-carbonitrile]
401 | Cc1c(Nc2c(C#N)cnc3sc(-c4cccc5ccccc45)cc23)ccc2[nH]ccc12 [Compound 363, 4-[(4-methyl-1H-indol-5-yl)amino]-2-(1-naphthyl)thieno[2,3-b]pyridine-5-carbonitrile]
88 | CN(CCO)Cc1cccc(-c2cc3c(Nc4ccc5[nH]ccc5c4)c(C#N)cnc3s2)c1 [Compound 164, 2-(3-{[(2-hydroxyethyl)(methyl)amino]methyl}phenyl)-4-(1H-indol-5-ylamino)thieno[2,3-b]pyridine-5-carbonitrile]
111 | Cc1c(Nc2c(C#N)cnc3sc(/C=C/C(=O)Nc4ccccc4)cc23)ccc2[nH]ccc12 [Compound 303, (2E)-3-{5-cyano-4-[(4-methyl-1H-indol-5-yl)amino]thieno[2,3-b]pyridin-2-yl}-N-phenylacrylamide]
79 | N#Cc1cnc2sc(-c3cccc(CNCCOCCO)c3)cc2c1Nc1ccc2[nH]ccc2c1 [Compound 183, 2-[3-({[2-(2-hydroxyethoxy)ethyl]amino}methyl)phenyl]-4-(1H-indol-5-ylamino)thieno[2,3-b]pyridine-5-carbonitrile]
16400 | CN(C)Cc1cccc(-c2cc3c(Nc4ccncc4)c(C#N)cnc3s2)c1 [Compound 327, 2-{3-[(dimethylamino)methyl]phenyl}-4-(pyridin-4-ylamino)thieno[2,3-b]pyridine-5-carbonitrile]
29 | CCCOc1c(CN(C)C)cc(C)cc1-c1cc2c(Nc3ccc4[nH]ccc4c3C)c(C#N)cnc2s1 [Compound 455, 2-{3-[(dimethylamino)methyl]-5-methyl-2-propoxyphenyl}-4-[(4-methyl-1H-indol-5-yl)amino]thieno[2,3-b]pyridine-5-carbonitrile]
292 | Cc1c(Nc2c(C#N)cnc3sc(-c4ccc(N5CCCCC5)nc4)cc23)ccc2[nH]ccc12 [Compound 397, 4-[(4-methyl-1H-indol-5-yl)amino]-2-(6-piperidin-1-ylpyridin-3-yl)thieno[2,3-b]pyridine-5-carbonitrile]
